In US5840684A, “Glycopeptide antibiotic derivatives” (Eli Lilly and Company, priority 1995, dated 1998):
≈ marks a conversion by molar mass, not a printed value.

Columns and labels:
[1] = tested on: Staphylococcus aureus S13E; format: cell-based
Procedure: (§1) The MIC's were determined using a standard broth micro-dilution assay.

[2] = tested on: Staphylococcus aureus SA1199B; format: cell-based
Procedure: as §1

[3] = tested on: Entercoccus faecium 180-1; assay: broth micro-dilution MIC; format: cell-based
Procedure: as §1

[4] = tested on: Entercoccus faecium 276; assay: broth micro-dilution MIC; format: cell-based
Procedure: as §1

[5] = tested on: Staphylococcus aureus 446; assay: broth micro-dilution MIC; format: cell-based
Procedure: as §1

[6] = tested on: Staphylococcus aureus 447; assay: broth micro-dilution MIC; format: cell-based
Procedure: as §1

[7] = tested on: Staphylococcus aureus X400; assay: broth micro-dilution MIC; format: cell-based
Procedure: as §1

[8] = tested on: Staphylococcus aureus X778; assay: broth micro-dilution MIC; format: cell-based
Procedure: as §1

[9] = tested on: Streptococcus pyogenes C203; assay: broth micro-dilution MIC; format: cell-based
Procedure: as §1

[10] = tested on: Entercoccus faecium 180; assay: broth micro-dilution MIC; format: cell-based; settings: Entercoccus faecium 180
Procedure: (§2) The formula I compounds have in vitro and in vivo activity against Gram-positive pathogenic bacteria. The MIC's were determined using a standard broth micro-dilution assay.

[11] = tested on: Entercoccus faecium 2041; assay: broth micro-dilution MIC; format: cell-based; settings: Entercoccus faecium 2041
Procedure: as §2

[12] = tested on: Enterococcus gallinarum 245; assay: broth micro-dilution MIC; format: cell-based; settings: Enterococcus gallinarum 245
Procedure: as §2

[13] = tested on: Staphylococcus epidermidis 270; assay: broth micro-dilution MIC; format: cell-based
Procedure: as §2

[14] = tested on: Staphylococcus haemolyticus 105; assay: broth micro-dilution MIC; format: cell-based
Procedure: as §2

[15] = tested on: Staphylococcus haemolyticus 415; assay: broth micro-dilution MIC; format: cell-based
Procedure: as §2

[16] = tested on: Streptococcus pneumoniae P1; assay: broth micro-dilution MIC; format: cell-based
Procedure: as §2

[17] = tested on: vancomycin-resistant enterococci; assay: broth micro-dilution, mean geometric MIC; format: cell-based, Enterococcus faecium and Enterococcus faecalis; settings: enterococci, 24-hour incubation
[18] = tested on: vancomycin-susceptible enterococci; assay: broth micro-dilution, mean geometric MIC; format: cell-based, Enterococcus faecium and Enterococcus faecalis; settings: enterococci, 24-hour incubation
[19] = tested on: Staphylococcus aureus SA1199A; assay: broth micro-dilution MIC; format: cell-based
Procedure: as §1

[20] = tested on: Staphylococcus aureus SA1199; assay: broth micro-dilution MIC; format: cell-based
Procedure: as §1

Row | mean geometric MIC, Vancomycin Resistant Strains [17] [mg/L] | mean geometric MIC, Vancomycin Sensitive Strains [18] [mg/L] | Structure (SMILES) | MIC [1] [mg/L] | MIC [3] [mg/L] | MIC [4] [mg/L] | MIC [5] [mg/L] | MIC [9] [mg/L] | MIC [10] [mg/L] | MIC [12] [mg/L] | MIC [16] [mg/L] | also measured
1 | 2.0 | 0.50 | CNC(CC(C)C)C(=O)NC1C(=O)NC(CC(N)=O)C(=O)NC2C(=O)NC3C(=O)NC(C(=O)NC(C(=O)O)c4cc(O)cc(O)c4-c4cc3ccc4O)C(OC3CC(C)(N)C(O)C(C)O3)c3ccc(c(Cl)c3)Oc3cc2cc(c3OC2OC(CO)C(O)C(O)C2OC2CC(C)(NCc3cc(-c4ccccc4)nc4ccc(OC)cc34)C(O)C(C)O2)Oc2ccc(cc2Cl)C1O (stereo not drawn) [Compound 45] |  |  |  |  |  |  |  |  | 
2 | 4.8 | 0.50 | CNC(CC(C)C)C(=O)NC1C(=O)NC(CC(N)=O)C(=O)NC2C(=O)NC3C(=O)NC(C(=O)NC(C(=O)O)c4cc(O)cc(O)c4-c4cc3ccc4O)C(OC3CC(C)(N)C(O)C(C)O3)c3ccc(c(Cl)c3)Oc3cc2cc(c3OC2OC(CO)C(O)C(O)C2OC2CC(C)(NCc3ccc4c(c3)OCO4)C(O)C(C)O2)Oc2ccc(cc2Cl)C1O (stereo not drawn) [Compound 48] |  |  |  |  |  |  |  |  | 
3 | 1.7 | 0.089 | CNC(CC(C)C)C(=O)NC1C(=O)NC(CC(N)=O)C(=O)NC2C(=O)NC3C(=O)NC(C(=O)NC(C(=O)O)c4cc(O)cc(O)c4-c4cc3ccc4O)C(OC3CC(C)(N)C(O)C(C)O3)c3ccc(c(Cl)c3)Oc3cc2cc(c3OC2OC(CO)C(O)C(O)C2OC2CC(C)(NCC(C)=Cc3ccc(C(C)(C)C)cc3)C(O)C(C)O2)Oc2ccc(cc2Cl)C1O (stereo not drawn) [Compound 42] |  |  |  |  |  |  |  |  | 
4 | 4.7 | 0.57 | CNC(CC(C)C)C(=O)NC1C(=O)NC(CC(N)=O)C(=O)NC2C(=O)NC3C(=O)NC(C(=O)NC(C(=O)O)c4cc(O)cc(O)c4-c4cc3ccc4O)C(OC3CC(C)(N)C(O)C(C)O3)c3ccc(c(Cl)c3)Oc3cc2cc(c3OC2OC(CO)C(O)C(O)C2OC2CC(C)(NCC3CC=CCC3)C(O)C(C)O2)Oc2ccc(cc2Cl)C1O (stereo not drawn) [Compound 47] |  |  |  |  |  |  |  |  | 
5 | 72 | 0.22 | CNC(CC(C)C)C(=O)NC1C(=O)NC(CC(N)=O)C(=O)NC2C(=O)NC3C(=O)NC(C(=O)NC(C(=O)O)c4cc(O)cc(O)c4-c4cc3ccc4O)C(OC3CC(C)(N)C(O)C(C)O3)c3ccc(c(Cl)c3)Oc3cc2cc(c3OC2OC(CO)C(O)C(O)C2OC2CC(C)(NCc3ccc(C(O)c4ccccc4)cc3)C(O)C(C)O2)Oc2ccc(cc2Cl)C1O (stereo not drawn) [Compound 109] |  |  |  |  |  |  |  |  | 
6 | 13 | 0.50 | CNC(CC(C)C)C(=O)NC1C(=O)NC(CC(N)=O)C(=O)NC2C(=O)NC3C(=O)NC(C(=O)NC(C(=O)O)c4cc(O)cc(O)c4-c4cc3ccc4O)C(OC3CC(C)(N)C(O)C(C)O3)c3ccc(c(Cl)c3)Oc3cc2cc(c3OC2OC(CO)C(O)C(O)C2OC2CC(C)(NCc3c(O)ccc4ccccc34)C(O)C(C)O2)Oc2ccc(cc2Cl)C1O (stereo not drawn) [Compound 44] |  |  |  |  |  |  |  |  | 
7 | 0.50 | 0.31 | CCCCCOc1ccc(-c2ccc(CNC3(C)CC(OC4C(Oc5c6cc7cc5Oc5ccc(cc5Cl)C(OC5CC(C)(N)C(O)C(C)O5)C5NC(=O)C(NC(=O)C7NC(=O)C(CC(N)=O)NC(=O)C(NC(=O)C(CC(C)C)NC)C(O)c7ccc(c(Cl)c7)O6)c6ccc(O)c(c6)-c6c(O)cc(O)cc6C(C(=O)O)NC5=O)OC(CO)C(O)C4O)OC(C)C3O)cc2)cc1 (stereo not drawn) [Compound 40] |  |  |  |  |  |  |  |  | 

The remaining lines, values behind:

Row | Structure (SMILES) | mean geometric MIC, Vancomycin Resistant Strains [17] [mg/L] | mean geometric MIC, Vancomycin Sensitive Strains [18] [mg/L] | MIC [1] [mg/L] | MIC [3] [mg/L] | MIC [4] [mg/L] | MIC [5] [mg/L] | MIC [9] [mg/L] | MIC [10] [mg/L] | MIC [12] [mg/L] | MIC [16] [mg/L] | also measured
8 | CCOC(c1ccccc1)c1ccc(CNC2(C)CC(OC3C(Oc4c5cc6cc4Oc4ccc(cc4Cl)C(OC4CC(C)(N)C(O)C(C)O4)C4NC(=O)C(NC(=O)C6NC(=O)C(CC(N)=O)NC(=O)C(NC(=O)C(CC(C)C)NC)C(O)c6ccc(c(Cl)c6)O5)c5ccc(O)c(c5)-c5c(O)cc(O)cc5C(C(=O)O)NC4=O)OC(CO)C(O)C3O)OC(C)C2O)cc1 (stereo not drawn) [Compound 126] | 2.4 | 0.11 | 0.5 (≈ 0.275 µM) | ≤ 0.06 | 1 (≈ 0.55 µM) | 2 (≈ 1.1 µM) | ≤ 0.06 | 1 (≈ 0.55 µM) | 2 (≈ 1.1 µM) | ≤ 0.06 | MIC [2]: 1 mg/L (≈ 0.55 µM); MIC [6]: 1 mg/L (≈ 0.55 µM); MIC [7]: 1 mg/L (≈ 0.55 µM); MIC [8]: 0.5 mg/L (≈ 0.275 µM); MIC [11]: ≤ 0.06 mg/L; MIC [13]: 1 mg/L (≈ 0.55 µM); MIC [14]: 0.5 mg/L (≈ 0.275 µM); MIC [15]: 2 mg/L (≈ 1.1 µM)
9 | CNC(CC(C)C)C(=O)NC1C(=O)NC(CC(N)=O)C(=O)NC2C(=O)NC3C(=O)NC(C(=O)NC(C(=O)O)c4cc(O)cc(O)c4-c4cc3ccc4O)C(OC3CC(C)(N)C(O)C(C)O3)c3ccc(c(Cl)c3)Oc3cc2cc(c3OC2OC(CO)C(O)C(O)C2OC2CC(C)(NCCc3cccc(Oc4ccccc4)c3)C(O)C(C)O2)Oc2ccc(cc2Cl)C1O (stereo not drawn) [Compound 62] | 9.5 | 0.22 | 0.5 (≈ 0.28 µM) | ≤ 0.06 | 0.5 (≈ 0.28 µM) | 2 (≈ 1.12 µM) | ≤ 0.06 | 4 (≈ 2.24 µM) | 4 (≈ 2.24 µM) | ≤ 0.06 | MIC [2]: 1 mg/L (≈ 0.559 µM); MIC [6]: 0.5 mg/L (≈ 0.28 µM); MIC [19]: ≤ 0.06 mg/L; MIC [7]: ≤ 0.06 mg/L; MIC [8]: 0.5 mg/L (≈ 0.28 µM); MIC [11]: ≤ 0.06 mg/L; MIC [13]: 1 mg/L (≈ 0.559 µM); MIC [14]: 2 mg/L (≈ 1.12 µM)
10 | CNC(CC(C)C)C(=O)NC1C(=O)NC(CC(N)=O)C(=O)NC2C(=O)NC3C(=O)NC(C(=O)NC(C(=O)O)c4cc(O)cc(O)c4-c4cc3ccc4O)C(OC3CC(C)(N)C(O)C(C)O3)c3ccc(c(Cl)c3)Oc3cc2cc(c3OC2OC(CO)C(O)C(O)C2OC2CC(C)(NCCc3ccc(Cc4ccccc4)cc3)C(O)C(C)O2)Oc2ccc(cc2Cl)C1O (stereo not drawn) [Compound 35] | 5.6 |  | ≤ 0.06 | ≤ 0.06 | ≤ 0.06 | 0.5 (≈ 0.28 µM) |  | 1 (≈ 0.56 µM) | ≤ 0.06 |  | MIC [11]: ≤ 0.06 mg/L; MIC [13]: 1 mg/L (≈ 0.56 µM); MIC [14]: 2 mg/L (≈ 1.12 µM); MIC [15]: 4 mg/L (≈ 2.24 µM)
11 | CNC(CC(C)C)C(=O)NC1C(=O)NC(CC(N)=O)C(=O)NC2C(=O)NC3C(=O)NC(C(=O)NC(C(=O)O)c4cc(O)cc(O)c4-c4cc3ccc4O)C(OC3CC(C)(N)C(O)C(C)O3)c3ccc(c(Cl)c3)Oc3cc2cc(c3OC2OC(CO)C(O)C(O)C2OC2CC(C)(NCc3ccc(C(F)(F)F)cc3)C(O)C(C)O2)Oc2ccc(cc2Cl)C1O (stereo not drawn) [Compound 37] | 2.4 |  | ≤ 0.06 | ≤ 0.06 | 1 (≈ 0.571 µM) | 0.5 (≈ 0.286 µM) | ≤ 0.06 |  |  | ≤ 0.06 | MIC [2]: ≤ 0.06 mg/L; MIC [15]: 1 mg/L (≈ 0.571 µM)
12 | CCCCCCCCOc1ccc(-c2ccc(CNC3(C)CC(OC4C(Oc5c6cc7cc5Oc5ccc(cc5Cl)C(OC5CC(C)(N)C(O)C(C)O5)C5NC(=O)C(NC(=O)C7NC(=O)C(CC(N)=O)NC(=O)C(NC(=O)C(CC(C)C)NC)C(O)c7ccc(c(Cl)c7)O6)c6ccc(O)c(c6)-c6c(O)cc(O)cc6C(C(=O)O)NC5=O)OC(CO)C(O)C4O)OC(C)C3O)cc2)cc1 (stereo not drawn) [Compound 23] | 5.7 | 2.0 |  | 32 (≈ 17 µM) | 32 (≈ 17 µM) | 38 (≈ 20.1 µM) | 1 (≈ 0.53 µM) |  | 8 (≈ 4.24 µM) | 0.5 (≈ 0.265 µM) | MIC [11]: 32 mg/L (≈ 17 µM)
13 | CCCCCCCCCCCCOc1ccc(CNC2(C)CC(OC3C(Oc4c5cc6cc4Oc4ccc(cc4Cl)C(OC4CC(C)(N)C(O)C(C)O4)C4NC(=O)C(NC(=O)C6NC(=O)C(CC(N)=O)NC(=O)C(NC(=O)C(CC(C)C)NC)C(O)c6ccc(c(Cl)c6)O5)c5ccc(O)c(c5)-c5c(O)cc(O)cc5C(C(=O)O)NC4=O)OC(CO)C(O)C3O)OC(C)C2O)cc1 (stereo not drawn) [Compound 10] |  | 3.5 | 8 (≈ 4.29 µM) | 4 (≈ 2.14 µM) | 18 (≈ 9.64 µM) |  | ≤ 0.06 | 8 (≈ 4.29 µM) | 8 (≈ 4.29 µM) | 0.125 (≈ 0.067 µM) | MIC [2]: 8 mg/L (≈ 4.29 µM); MIC [19]: 4 mg/L (≈ 2.14 µM); MIC [20]: 8 mg/L (≈ 4.29 µM)
14 | CCCCCCCCc1ccc(-c2ccc(CNC3(C)CC(OC4C(Oc5c6cc7cc5Oc5ccc(cc5Cl)C(OC5CC(C)(N)C(O)C(C)O5)C5NC(=O)C(NC(=O)C7NC(=O)C(CC(N)=O)NC(=O)C(NC(=O)C(CC(C)C)NC)C(O)c7ccc(c(Cl)c7)O6)c6ccc(O)c(c6)-c6c(O)cc(O)cc6C(C(=O)O)NC5=O)OC(CO)C(O)C4O)OC(C)C3O)cc2)cc1 (stereo not drawn) [Compound 21] |  | 4.3 |  | 8 (≈ 4.28 µM) |  |  | 2 (≈ 1.07 µM) | 8 (≈ 4.28 µM) | 8 (≈ 4.28 µM) | 0.5 (≈ 0.267 µM) | 
